The source of these data is patent US11446287B2, “Compounds and methods for EP300 or CBP modulation and indications therefor” (Opna Immuno-Oncology SA, priority 2019, dated 2022).

This assay deals with T1, Recombinant human CBP containing the bromodomain (CBP-BD (1043-1159)) (Homo sapiens, UniProt Q92793).
T1 construct: Recombinant human CBP bromodomain (CBP-BD (1043-1159)); made in house; host or cells: E. coli BL21-CodonPlus (DE3), modified pET vector
Kind of assay: CBP Alphascreen binding assay. To be noted: read-out: CREBBP (CBP) IC50. The essentials:
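Buffer: 50 mM HEPES pH 7.5, 50 mM NaCl, 0.01% BSA, 0.01% Triton X-100, 2 mM DTT. The signal was normalised to plate controls and fitted with a four-parameter curve to give IC50.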
In general terms: In Alpha technology, singlet oxygen from a donor bead excites a nearby acceptor bead.

T1 sequence (Q92793 1081-1197): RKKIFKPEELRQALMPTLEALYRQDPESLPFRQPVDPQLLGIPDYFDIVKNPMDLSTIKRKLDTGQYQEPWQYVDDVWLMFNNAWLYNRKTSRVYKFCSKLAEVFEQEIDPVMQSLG

The IC50 is the concentration needed to halve the response being measured. For `Cc1noc(C)c1-c1cnc2c(-c3cc(C(=O)O)ccc3Cl)c(C(F)(F)F)n([C@@H](C)c3ccccn3)c2c1` [P-0257, (S)-4-chloro-3-(6-(3,5-dimethylisoxazol-4-yl)-1-(1-(pyridin-2-yl)ethyl)-2-(trifluoromethyl)-1H-pyrrolo[3,2-b]pyridin-3-yl)benzoic acid], the half-maximal inhibitory concentration (IC50) is 0.0001 to 1 µM.

As to `CCOc1cc(C(=O)O)cc(OCC)c1-n1cc(-c2cnn(CS(C)(=O)=O)c2)c2ncc(-c3c(C)noc3C)cc21` [P-0258, 4-(6-(3,5-dimethylisoxazol-4-yl)-3-(1-((methylsulfonyl)methyl)-1H-pyrazol-4-yl)-1H-pyrrolo[3,2-b]pyridin-1-yl)-3,5-diethoxybenzoic acid], the IC50 lay in the range of 0.0001 to 1 µM.

As for `CCOc1cc(C(=O)O)cc(OCC)c1-n1cc(-c2cn(C(C)C)nc2C)c2ncc(-c3c(C)noc3C)cc21` [P-0259, 4-(6-(3,5-dimethylisoxazol-4-yl)-3-(1-isopropyl-3-methyl-1H-pyrazol-4-yl)-1H-pyrrolo[3,2-b]pyridin-1-yl)-3,5-diethoxybenzoic acid], the IC50 lay in the range of 0.0001 to 1 µM.

For `CCOc1cc(C(=O)O)cc(OCC)c1-n1cc(-c2cnn(CC(C)(C)O)c2)c2ncc(-c3c(C)noc3C)cc21` [P-0260, 4-(6-(3,5-dimethylisoxazol-4-yl)-3-(1-(2-hydroxy-2-methylpropyl)-1H-pyrazol-4-yl)-1H-pyrrolo[3,2-b]pyridin-1-yl)-3,5-diethoxybenzoic acid], the concentration for half-maximal inhibition (IC50) is 0.0001 to 1 µM.

As for `CCOc1cc(C(=O)O)cc(OCC)c1-n1cc(-c2cnn(C(F)F)c2)c2ncc(-c3c(C)noc3C)cc21` [P-0261, 4-(3-(1-(difluoromethyl)-1H-pyrazol-4-yl)-6-(3,5-dimethylisoxazol-4-yl)-1H-pyrrolo[3,2-b]pyridin-1-yl)-3,5-diethoxybenzoic acid], the IC50 was 0.0001 to 1 µM.

For `CCOc1cc(C(=O)O)cc(OCC)c1-n1cc(-c2cnn(CCN(C)C)c2)c2ncc(-c3c(C)noc3C)cc21` [P-0262, 4-(3-(1-(2-(dimethylamino)ethyl)-1H-pyrazol-4-yl)-6-(3,5-dimethylisoxazol-4-yl)-1H-pyrrolo[3,2-b]pyridin-1-yl)-3,5-diethoxybenzoic acid], the IC50 lay in the range of 0.0001 to 1 µM.

`CCOc1cc(C(=O)O)cc(OCC)c1-n1cc(-c2cn(C)nc2C)c2ncc(-c3c(C)noc3C)cc21` [P-0263, 4-(3-(1,3-dimethyl-1H-pyrazol-4-yl)-6-(3,5-dimethylisoxazol-4-yl)-1H-pyrrolo[3,2-b]pyridin-1-yl)-3,5-diethoxybenzoic acid]: the IC50 is 0.0001 to 1 µM.

As for `CCOc1cc(C(=O)O)cc(OCC)c1-n1cc(-c2cnn(CC3CC3)c2)c2ncc(-c3c(C)noc3C)cc21` [P-0264, 4-(3-(1-(cyclopropylmethyl)-1H-pyrazol-4-yl)-6-(3,5-dimethylisoxazol-4-yl)-1H-pyrrolo[3,2-b]pyridin-1-yl)-3,5-diethoxybenzoic acid], the 50% inhibitory concentration (IC50) was in the range of 0.0001 to 1 µM.

`CCOc1cc(C(=O)O)cc(OCC)c1-n1cc(-c2cnn(C3CC3)c2)c2ncc(-c3c(C)noc3C)cc21` [P-0265, 4-(3-(1-cyclopropyl-1H-pyrazol-4-yl)-6-(3,5-dimethylisoxazol-4-yl)-1H-pyrrolo[3,2-b]pyridin-1-yl)-3,5-diethoxybenzoic acid]: the 50% inhibitory concentration (IC50) fell in the range of 0.0001 to 1 µM.

Take `CCOc1cc(C(=O)O)cc(OCC)c1-n1cc(-c2cnn(CCC#N)c2)c2ncc(-c3c(C)noc3C)cc21` [P-0266, 4-(3-(1-(2-cyanoethyl)-1H-pyrazol-4-yl)-6-(3,5-dimethylisoxazol-4-yl)-1H-pyrrolo[3,2-b]pyridin-1-yl)-3,5-diethoxybenzoic acid]: the IC50 fell in the range of 0.0001 to 1 µM.

On to `CCOc1cc(C(=O)O)cc(OCC)c1-n1cc(-c2cnn(CC(=O)N(C)C)c2)c2ncc(-c3c(C)noc3C)cc21` [P-0267, 4-(3-(1-(2-(dimethylamino)-2-oxoethyl)-1H-pyrazol-4-yl)-6-(3,5-dimethylisoxazol-4-yl)-1H-pyrrolo[3,2-b]pyridin-1-yl)-3,5-diethoxybenzoic acid], for which the IC50 fell in the range of 0.0001 to 1 µM.

Take `Cc1noc(C)c1-c1cnc2c(c1)c(-c1cc(C(=O)O)ccc1OC(F)(F)F)cn2-c1ccc(F)cc1F` [P-0268, 3-(1-(2,4-difluorophenyl)-5-(3,5-dimethylisoxazol-4-yl)-1H-pyrrolo[2,3-b]pyridin-3-yl)-4-(trifluoromethoxy)benzoic acid]: the IC50 was in the range of 0.0001 to 1 µM.

For the compound `Cc1noc(C)c1-c1cnc2c(-c3ccc(F)cc3F)cn(-c3c(OC(C)C)cc(C(=O)O)cc3OC(C)C)c2c1` [P-0269, 4-(3-(2,4-difluorophenyl)-6-(3,5-dimethylisoxazol-4-yl)-1H-pyrrolo[3,2-b]pyridin-1-yl)-3,5-diisopropoxybenzoic acid], the IC50 lay within 0.0001 to 1 µM.

For the compound `CCOc1cc(C(=O)O)cc(OCC)c1-n1cc(CC2CCC2)c2ncc(-n3c(C)nnc3C)cc21` [P-0270, 4-(3-(cyclobutylmethyl)-6-(3,5-dimethyl-4H-1,2,4-triazol-4-yl)-1H-pyrrolo[3,2-b]pyridin-1-yl)-3,5-diethoxybenzoic acid], the IC50 fell in the range of 1 to 8 µM.

With `CCOc1cc(C(=O)O)cc(OCC)c1-n1cc(C2CCC(F)(F)CC2)c2ncc(-c3c(C)noc3C)cc21` [P-0271, 4-(3-(4,4-difluorocyclohexyl)-6-(3,5-dimethylisoxazol-4-yl)-1H-pyrrolo[3,2-b]pyridin-1-yl)-3,5-diethoxybenzoic acid], the half-maximal inhibitory concentration (IC50) fell in the range of 0.0001 to 1 µM.

As for `Cc1noc(C)c1-c1cnc2c(c1)c(-c1cnn(CC(=O)O)c1)cn2-c1ncccc1C#CC1CC1` [P-0272, 2-(4-(1-(3-(cyclopropylethynyl)pyridin-2-yl)-5-(3,5-dimethylisoxazol-4-yl)-1H-pyrrolo[2,3-b]pyridin-3-yl)-1H-pyrazol-1-yl)acetic acid], the 50% inhibitory concentration (IC50) was 0.0001 to 1 µM.

`Cc1noc(C)c1-c1cnc2c(c1)c(-c1ccc(C(=O)O)cc1OC(F)F)cn2-c1ccccc1` [P-0273, 3-(difluoromethoxy)-4-(5-(3,5-dimethylisoxazol-4-yl)-1-phenyl-1H-pyrrolo[2,3-b]pyridin-3-yl)benzoic acid]: the half-maximal inhibitory concentration (IC50) lay in the range of 0.0001 to 1 µM.

For `Cc1noc(C)c1-c1cnc2c(-c3ccccc3)cn(-c3cc(C(=O)O)ccc3OC(F)(F)F)c2c1` [P-0274, 3-(6-(3,5-dimethylisoxazol-4-yl)-3-phenyl-1H-pyrrolo[3,2-b]pyridin-1-yl)-4-(trifluoromethoxy)benzoic acid], the 50% inhibitory concentration (IC50) is 0.0001 to 1 µM.

Turning to `Cc1noc(C)c1-c1cnc2c(c1)c(-c1ccc(C(=O)O)cc1OC(C)C)cn2-c1ccccc1` [P-0275, 4-(5-(3,5-dimethylisoxazol-4-yl)-1-phenyl-1H-pyrrolo[2,3-b]pyridin-3-yl)-3-isopropoxybenzoic acid], the IC50 is 0.0001 to 1 µM.

For `Cc1noc(C)c1-c1cnc2c(c1)c(-c1ccc(C(=O)O)cc1OC1CCC1)cn2-c1ccccc1` [P-0276, 3-cyclobutoxy-4-(5-(3,5-dimethylisoxazol-4-yl)-1-phenyl-1H-pyrrolo[2,3-b]pyridin-3-yl)benzoic acid], the IC50 was 0.0001 to 1 µM.

For the compound `Cc1noc(C)c1-c1cnc2c(c1)c(-c1ccc(C(=O)O)cc1OCC(F)F)cn2-c1ccccc1` [P-0277, 3-(2,2-difluoroethoxy)-4-(5-(3,5-dimethylisoxazol-4-yl)-1-phenyl-1H-pyrrolo[2,3-b]pyridin-3-yl)benzoic acid], the IC50 lay within 0.0001 to 1 µM.

Consider `Cc1noc(C)c1-c1cnc2c(c1)c(-c1ccc(C(=O)O)cc1OCC(F)(F)F)cn2-c1ccccc1` [P-0278, 4-(5-(3,5-dimethylisoxazol-4-yl)-1-phenyl-1H-pyrrolo[2,3-b]pyridin-3-yl)-3-(2,2,2-trifluoroethoxy)benzoic acid], for which the IC50 lay in the range of 0.0001 to 1 µM.

`Cc1noc(C)c1-c1cnc2c(c1)c(-c1ccc(C(=O)O)cc1OC(F)(F)F)cn2-c1ccc(F)cc1` [P-0279, 4-(5-(3,5-dimethylisoxazol-4-yl)-1-(4-fluorophenyl)-1H-pyrrolo[2,3-b]pyridin-3-yl)-3-(trifluoromethoxy)benzoic acid]: the 50% inhibitory concentration (IC50) was in the range of 0.0001 to 1 µM.

With `Cc1noc(C)c1-c1cnc2c(c1)c(-c1cnn(CC(=O)O)c1)cn2C(C1CC1)C1CC1` [P-0280, 2-(4-(1-(dicyclopropylmethyl)-5-(3,5-dimethylisoxazol-4-yl)-1H-pyrrolo[2,3-b]pyridin-3-yl)-1H-pyrazol-1-yl)acetic acid], the IC50 lay in the range of 0.0001 to 1 µM.

`Cc1noc(C)c1-c1cnc2c(c1)c(-c1ccc(C(=O)O)cc1OC(F)(F)F)cn2-c1cnc(N2CCC2)nc1` [P-0281, 4-(1-(2-(azetidin-1-yl)pyrimidin-5-yl)-5-(3,5-dimethylisoxazol-4-yl)-1H-pyrrolo[2,3-b]pyridin-3-yl)-3-(trifluoromethoxy)benzoic acid]: the IC50 fell in the range of 0.0001 to 1 µM.

Take `Cc1noc(C)c1-c1cnc2c(c1)c(-c1ccc(C(=O)O)cc1OC(F)(F)F)cn2-c1ccc(S(C)(=O)=O)cc1` [P-0282, 4-(5-(3,5-dimethylisoxazol-4-yl)-1-(4-(methylsulfonyl)phenyl)-1H-pyrrolo[2,3-b]pyridin-3-yl)-3-(trifluoromethoxy)benzoic acid]: the 50% inhibitory concentration (IC50) lay in the range of 0.0001 to 1 µM.

Turning to `Cc1noc(C)c1-c1cnc2c(c1)c(-c1c(Cl)cc(C(=O)O)cc1OC(C)C)cn2C(C1CC1)C1CC1` [P-0283, 3-chloro-4-(1-(dicyclopropylmethyl)-5-(3,5-dimethylisoxazol-4-yl)-1H-pyrrolo[2,3-b]pyridin-3-yl)-5-isopropoxybenzoic acid], the IC50 fell in the range of 0.0001 to 1 µM.

Turning to `Cc1noc(C)c1-c1cnc2c(c1)c(-c1cc(C(=O)O)ccc1OC(F)(F)F)cn2C(C1CC1)C1CC1` [P-0284, 3-(1-(dicyclopropylmethyl)-5-(3,5-dimethylisoxazol-4-yl)-1H-pyrrolo[2,3-b]pyridin-3-yl)-4-(trifluoromethoxy)benzoic acid], the 50% inhibitory concentration (IC50) was 0.0001 to 1 µM.

For the compound `Cc1noc(C)c1-c1cnc2c(c1)c(-c1ccc(C(=O)O)cc1OC(F)(F)F)cn2[C@H]1CCOC1` [P-0285, (S)-4-(5-(3,5-dimethylisoxazol-4-yl)-1-(tetrahydrofuran-3-yl)-1H-pyrrolo[2,3-b]pyridin-3-yl)-3-(trifluoromethoxy)benzoic acid], the concentration for half-maximal inhibition (IC50) was in the range of 0.0001 to 1 µM.
